Test results published in patent US11214803B2, “Modulators of YAP1 expression” (Ionis Pharmaceuticals, Inc., priority 2019, dated 2022).
Strand notation (5' to 3'): a small letter for the sugar, then the base; units joined by * are phosphorothioate-linked, units joined directly phosphodiester-linked; [ ] holds rarer units or linkages, { } end groups; capitals alone tell only the bases. k = constrained ethyl (cEt); [5mC] = 5-methylcytosine; d = 2'-deoxy (DNA)

system: Yap1 mRNA; assay: Antisense inhibition of human Yap1 in A-431 cells by cEt gapmers, single dose (Example 2, RTS4814); assay type: cell-based; conditions: A-431 cells, 5,000 cells per well, free uptake, 2,000 nM modified oligonucleotide, approx. 48 hours, RTS4814, normalized to RIBOGREEN; Table 4; asterisk (*) = targets amplicon region of primer probe set
How it was run: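 Read-out is Yap1 mRNA as percent of untreated cells, by real-time RT-PCR (probe set RTS4814) normalized to total RNA via RIBOGREEN. Cells were A-431 dosed with 2,000 nM gapmer without transfection for approximately 48 hours.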

Substance	YAP1 (% UTC)
716481 (kT*k[5mC]*kA*dG*d[5mC]*dA*dT*dA*dG*dA*dA*dG*dT*kA*kG*kG; antisense) [Compound 716481]	23
716493 (kA*k[5mC]*kA*dT*dT*dG*dA*dA*dA*dG*dA*d[5mC]*d[5mC]*k[5mC]*kT*kT; antisense) [Compound 716493]	30
716565 (kG*kG*kG*d[5mC]*dT*dA*dA*d[5mC]*dT*dA*d[5mC]*dA*dT*kT*kG*k[5mC]; antisense) [Compound 716565]	129

same assay, conditions: Table 5; A-431 cells, 5,000 cells per well, free uptake, 2,000 nM modified oligonucleotide, approx. 48 hours; RTS4814; normalized to RIBOGREEN; Yap1 mRNA relative to untreated control cells

Substance	YAP1 (% UTC)
716455 (kG*kT*kT*dA*dT*dG*dT*dT*dT*dG*dG*dG*dT*kG*kT*kG; antisense) [Compound 716455]	17
716530 (antisense kA*k[5mC]*kA*dT*d[5mC]*dA*dA*dG*dG*d[5mC]*dT*dA*dT*kG*kA*kT) [Compound 716530]	83
716389 (kA*kG*k[5mC]*d[5mC]*dT*dT*dG*dG*dG*dT*d[5mC]*dT*dA*kG*k[5mC]*k[5mC]; antisense) [Compound 716389]	93
716371 (kT*kG*kG*dA*dG*dT*d[5mC]*dA*dG*dG*dG*d[5mC]*dT*k[5mC]*k[5mC]*kT; antisense) [Compound 716371]	115
716557 (kA*kT*kT*dG*dG*dT*dA*d[5mC]*dT*dA*dT*dA*dT*kA*kT*kA; antisense) [Compound 716557]	80
716515 (antisense kT*kA*kA*dG*d[5mC]*dT*dA*dA*dA*dG*d[5mC]*dT*dA*kA*kT*k[5mC]) [Compound 716515]	123

same assay, conditions: Table 6; A-431 cells, 5,000 cells per well, free uptake, 2,000 nM modified oligonucleotide, approx. 48 hours; RTS4814; normalized to RIBOGREEN; Yap1 mRNA relative to untreated control cells

Substance	YAP1 (% UTC)
716408 (k[5mC]*kA*k[5mC]*dT*dG*dT*dA*dG*d[5mC]*dT*dG*d[5mC]*dT*k[5mC]*kA*kT; antisense) [Compound 716408]	54

same assay, conditions: Table 18; A-431 cells, 5,000 cells per well, free uptake, 2,000 nM modified oligonucleotide, approx. 48 hours; RTS4814; normalized to RIBOGREEN; Yap1 mRNA as percent of untreated control

Substance	YAP1 (% UTC)
1075620 (kG*kA*kT*dG*dA*dA*dG*dA*dA*dT*d[5mC]*dT*dA*kT*kA*kG; antisense) [Compound 1075620]	88
1075812 (k[5mC]*kA*kT*dT*dA*dA*dG*dA*dT*dT*dT*dT*dA*kA*k[5mC]*k[5mC]; antisense) [Compound 1075812]	103
1076132 (k[5mC]*kA*kT*d[5mC]*dA*dA*dT*dA*d[5mC]*dT*dG*dA*d[5mC]*kA*kT*k[5mC]; antisense) [Compound 1076132]	28
1075652 (kG*kT*kA*dT*dA*dT*dT*dA*d[5mC]*dA*dA*dT*d[5mC]*k[5mC]*k[5mC]*kA; antisense) [Compound 1075652]	40
1076452 (kG*kG*kA*d[5mC]*dT*dA*dT*dA*dG*d[5mC]*d[5mC]*d[5mC]*dT*kT*kA*kA; antisense) [Compound 1076452]	16

same assay, conditions: Table 19; A-431 cells, 5,000 cells per well, free uptake, 2,000 nM modified oligonucleotide, approx. 48 hours; RTS4814; normalized to RIBOGREEN; Yap1 mRNA as percent of untreated control

Substance	YAP1 (% UTC)
1075909 (kA*kA*kA*dT*dA*dA*dG*dG*dA*dG*dT*dA*dG*kG*kT*kG; antisense) [Compound 1075909]	93
1074501 (kA*k[5mC]*kT*dA*d[5mC]*dA*dA*dT*dA*dA*d[5mC]*d[5mC]*dA*kT*k[5mC]*k[5mC]; antisense) [Compound 1074501]	9

same assay, conditions: Table 20; Yap1 mRNA, percent of untreated control; 3-10-3 cEt gapmers targeting SEQ ID NO.: 1 and 2

Substance	YAP1 (% UTC)
1074534 (antisense kT*kA*kA*dT*dA*dG*d[5mC]*dT*d[5mC]*dT*dT*dT*d[5mC]*kT*kA*kG) [Compound 1074534]	88
1076390 (kG*kA*kT*d[5mC]*dG*dA*dA*dA*dT*dA*dT*dT*d[5mC]*kG*kA*kG; antisense) [Compound 1076390]	54
1076038 (kA*kG*kG*d[5mC]*dA*dA*dG*dA*dA*dT*dT*dG*dG*kG*kT*kA; antisense) [Compound 1076038]	11
1076166 (kA*kT*kT*dT*dA*d[5mC]*dA*d[5mC]*d[5mC]*dA*d[5mC]*d[5mC]*dG*k[5mC]*k[5mC]*k[5mC]; antisense) [Compound 1076166]	77
1074470 (k[5mC]*k[5mC]*k[5mC]*d[5mC]*d[5mC]*d[5mC]*dA*d[5mC]*d[5mC]*dG*dA*d[5mC]*d[5mC]*k[5mC]*kT*kG; antisense) [Compound 1074470]	69
1075046 (antisense kA*kA*kA*dA*dT*dT*dA*dG*dA*d[5mC]*dT*d[5mC]*d[5mC]*k[5mC]*k[5mC]*k[5mC]) [Compound 1075046]	12

same assay, conditions: Table 21; Yap1 mRNA, percent of untreated control; 3-10-3 cEt gapmers targeting SEQ ID NO.: 1 and 2

Substance	YAP1 (% UTC)
1074663 (antisense k[5mC]*kA*kT*dT*d[5mC]*dT*dA*dG*dG*dT*dA*dG*dA*kA*kT*kT) [Compound 1074663]	79
1075879 (kG*kA*kA*dT*dA*dA*dA*dG*dA*dA*dG*dT*d[5mC]*kA*k[5mC]*k[5mC]; antisense) [Compound 1075879]	77
1075751 (kG*kA*kG*dG*dA*dA*d[5mC]*dA*dA*dG*dA*dT*d[5mC]*kT*k[5mC]*kA; antisense) [Compound 1075751]	72

same assay, conditions: Table 22; Yap1 mRNA as percent of untreated control; 3-10-3 cEt gapmers; single dose

Substance	YAP1 (% UTC)
1075592 (k[5mC]*kG*kT*dA*dA*dT*dA*dA*dT*d[5mC]*dA*d[5mC]*d[5mC]*kT*kT*kA; antisense) [Compound 1075592]	55

same assay, conditions: Table 23; Yap1 mRNA as percent of untreated control; 3-10-3 cEt gapmers; single dose

Substance	YAP1 (% UTC)
1075753 (k[5mC]*kT*kA*dG*dA*dA*d[5mC]*d[5mC]*dT*dT*dT*dT*d[5mC]*k[5mC]*kA*kG; antisense) [Compound 1075753]	65
1075081 (antisense kG*kA*kT*dT*dA*d[5mC]*dA*dA*dA*dG*dA*d[5mC]*dA*kG*k[5mC]*k[5mC]) [Compound 1075081]	7
1075465 (antisense kG*kA*kT*dT*dT*dA*dT*dT*dG*dA*dA*d[5mC]*dT*kG*kA*kG) [Compound 1075465]	7
1074793 (kA*kA*kT*d[5mC]*dA*dA*dT*dG*dT*dG*d[5mC]*dT*d[5mC]*k[5mC]*kA*kT; antisense) [Compound 1074793]	9
1074633 (antisense kG*kA*kG*dG*d[5mC]*dT*dT*dT*dT*d[5mC]*dA*dT*dA*kG*k[5mC]*kA) [Compound 1074633]	78

same assay, conditions: Table 24; Yap1 mRNA as percent of untreated control; 3-10-3 cEt gapmers targeting SEQ ID NO.: 1, and 2

Substance	YAP1 (% UTC)
1075242 (antisense k[5mC]*kA*kG*dG*dG*dA*dT*dA*dA*dT*dT*dA*d[5mC]*kT*kA*kA) [Compound 1075242]	7
1074634 (antisense kG*k[5mC]*kT*dG*dA*dG*dG*d[5mC]*dT*dT*dT*dT*d[5mC]*kA*kT*kA) [Compound 1074634]	55
1075722 (kG*kT*kT*dA*dA*dA*dT*dA*d[5mC]*d[5mC]*dT*dT*d[5mC]*kT*kA*kG; antisense) [Compound 1075722]	88

same assay, conditions: Table 25; Yap1 mRNA as percent of untreated control; 3-10-3 cEt gapmers targeting SEQ ID NO.: 1, and 2

Substance	YAP1 (% UTC)
1074475 (kA*k[5mC]*k[5mC]*dA*dA*d[5mC]*d[5mC]*d[5mC]*d[5mC]*d[5mC]*d[5mC]*d[5mC]*dA*k[5mC]*k[5mC]*kG; antisense) [Compound 1074475]	72
1075659 (kA*kA*kG*dT*dA*dA*dA*dA*dA*dA*d[5mC]*dG*dG*kT*kT*kT; antisense) [Compound 1075659]	125

same assay, conditions: Table 32; Yap1 mRNA, percent of untreated control; 3-10-3 cEt gapmers targeting SEQ ID NO.: 1, and 2

Substance	YAP1 (% UTC)
1075090 (kG*k[5mC]*kT*dT*dA*dT*dA*dA*dT*d[5mC]*dT*dT*dT*k[5mC]*kA*kG; antisense) [compound 1075090]	9
1074514 (kA*kA*kG*dG*dA*dT*dA*d[5mC]*dA*dT*dT*d[5mC]*d[5mC]*kA*k[5mC]*kT; antisense) [compound 1074514]	25
1074226 (antisense k[5mC]*kT*kG*dT*d[5mC]*dG*dA*dA*dG*dA*dT*dG*d[5mC]*kT*kG*kA) [compound 1074226]	10

same assay, conditions: Table 33; Yap1 mRNA, percent of untreated control; 3-10-3 cEt gapmers targeting SEQ ID NO.: 1, and 2

Substance	YAP1 (% UTC)
1074483 (k[5mC]*kA*k[5mC]*dT*dA*dA*dT*dA*dT*dG*dG*dT*d[5mC]*kA*kT*kT; antisense) [compound 1074483]	15
1076243 (kA*kT*kA*dT*dT*d[5mC]*dG*dA*dT*dG*dT*dA*dA*k[5mC]*kT*kT; antisense) [compound 1076243]	41
1075987 (kG*kA*kA*dG*dA*dA*dT*dA*dT*d[5mC]*dG*dA*dA*kA*kA*kG; antisense) [compound 1075987]	13
1074291 (antisense k[5mC]*kA*k[5mC]*dT*d[5mC]*dT*dG*dA*d[5mC]*dT*dG*dA*dT*kT*k[5mC]*kT) [compound 1074291]	11

same assay, conditions: Yap1 mRNA as percent of untreated control; A-431 cells; 3-10-3 cEt gapmers targeting SEQ ID NO.: 1, and 2; Table 30

Substance	YAP1 (% UTC)
1076112 (kA*kT*kT*d[5mC]*dA*dA*dA*dA*d[5mC]*d[5mC]*dA*d[5mC]*dG*kG*kA*kA; antisense) [compound 1076112]	98
